Patent USRE42890E1, “Furazanobenzimidazoles” (Basilea Pharmaceutica AG, priority 2003, dated 2011)
Like-named read-outs stand apart in the source and are kept apart here.

Experiments:
[1] = system: Jurkat; assay: MTS proliferation assay, Jurkat; format: cell-based, human; conditions: 72 h incubation, read-out: MTS proliferation assay IC 50 Jurkat
Method in brief: (§1)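 Absorbance at 492 nm after 3 h with MTS reagent gave proliferation. This followed 72 h compound exposure (final 0.3, 1, 3, 10 μM) at 37 °C and 7.5% CO2. Cells had been plated 24 h earlier in complete RPMI-1640 with 5% or 10% FCS.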

[2] = system: Jily; assay: MTS proliferation assay, Jily; format: cell-based; conditions: 72 h incubation, read-out: MTS proliferation assay IC 50 Jily
Method in brief: (§2)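 Antiproliferative read-out by MTS (3 h, A492) after 72 h compound exposure at final 0.3–10 μM (four concentrations). Cells were plated 24 h earlier in RPMI-1640 containing 5% or 10% FCS, cultured at 37 °C with 7.5% CO2.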

[3] = system: HT1080; assay: MTS proliferation assay, HT1080; format: cell-based, human; conditions: HT1080, 72 h incubation, read-out: MTS proliferation assay IC 50 HT1080
Method in brief: as §1

[4] = system: HeLa; assay: MTS proliferation assay, HeLa; format: cell-based, human; conditions: 72 h incubation, read-out: MTS proliferation assay IC 50 HeLa
Method in brief: as §1

[5] = system: MRC5; assay: MTS proliferation assay, MRC5; format: cell-based; conditions: MRC5, 72 h incubation, read-out: MTS proliferation assay IC 50 MRC5
Method in brief: as §2

[6] = system: adherent cells or suspension cells; assay: Hoechst 33342 nuclear staining (fraction of apoptotic nuclei); format: cell-based; parameters: key: 0 relating to no activity; 1 relating to weak activity comprising less than 70% of the cells; score 2 relating to strong activity comprising more than 70% of the cells

| Structure (SMILES) | IC50 [2] [nM] | Hoechst 33342 nuclear staining score ([6]; H460, conc 0.01 μm) | Hoechst 33342 nuclear staining score ([6]; H460, conc 0.1 μm) | Hoechst 33342 nuclear staining score ([6]; H460, conc 1 μm) | Hoechst 33342 nuclear staining score ([6]; HeLa, conc 0.01 μm) | Hoechst 33342 nuclear staining score ([6]; HeLa, conc 0.1 μm) | Hoechst 33342 nuclear staining score ([6]; HeLa, conc 1 μm) | Hoechst 33342 nuclear staining score ([6]; Jily, conc 0.01 μm) | Hoechst 33342 nuclear staining score ([6]; Jily, conc 0.1 μm) | Hoechst 33342 nuclear staining score ([6]; Jily, conc 1 μm) | Hoechst 33342 nuclear staining score ([6]; Jurkat, conc 0.01 μm) | Hoechst 33342 nuclear staining score ([6]; Jurkat, conc 0.1 μm) | Hoechst 33342 nuclear staining score ([6]; Jurkat, conc 1 μm) | Hoechst 33342 nuclear staining score ([6]; MRC5, conc 0.01 μm) | Hoechst 33342 nuclear staining score ([6]; MRC5, conc 0.1 μm) | Hoechst 33342 nuclear staining score ([6]; MRC5, conc 1 μm) | Hoechst 33342 nuclear staining score ([6]; PBLs, conc 0.01 μm) | Hoechst 33342 nuclear staining score ([6]; PBLs, conc 0.1 μm) | Hoechst 33342 nuclear staining score ([6]; PBLs, conc 1 μm) | IC50 [1] [nM] | other results |
| --- | --- | --- | --- | --- | --- | --- | --- | --- | --- | --- | --- | --- | --- | --- | --- | --- | --- | --- | --- | --- | --- |
| Nc1ccc(C(=O)Cn2c(-c3nonc3NCCC(=O)O)nc3ccccc32)cc1 [Example 13, 4-[1-(4-Aminophenacyl)-1H-benzimidazol-2-yl]-furazan-3-yl-N-(2-carboxyethyl)-amine] | 100 to 1000 | 0 | 0 | 2 (score 2 relating to strong activity comprising more than 70% of the cells) | 0 | 0 | 2 (score 2 relating to strong activity comprising more than 70% of the cells) | 0 | 0 | 2 (score 2 relating to strong activity comprising more than 70% of the cells) | 0 | 0 | 2 (score 2 relating to strong activity comprising more than 70% of the cells) | 0 | 0 | 2 (score 2 relating to strong activity comprising more than 70% of the cells) | 0 | 0 | 0 | – | IC50 ([1]; Homo sapiens): 100 to 1000 nM; IC50 ([3]; Homo sapiens, HT-1080): 100 to 1000 nM; IC50 ([4]; Homo sapiens): 100 to 1000 nM; IC50 ([5]; Homo sapiens): 100 to 1000 nM |
| N#CCCNc1nonc1-c1nc2ccccc2n1COc1ccc(Br)cc1 [Example 94] | 10 to 100 | 0 | 2 (score 2 relating to strong activity comprising more than 70% of the cells) | 2 (score 2 relating to strong activity comprising more than 70% of the cells) | 0 | 1 (1 relating to weak activity comprising less than 70% of the cells) | 2 (score 2 relating to strong activity comprising more than 70% of the cells) | 0 | 2 (score 2 relating to strong activity comprising more than 70% of the cells) | 2 (score 2 relating to strong activity comprising more than 70% of the cells) | 0 | 2 (score 2 relating to strong activity comprising more than 70% of the cells) | 2 (score 2 relating to strong activity comprising more than 70% of the cells) | 0 | 0 | 2 (score 2 relating to strong activity comprising more than 70% of the cells) | 0 | 0 | 0 | 10 to 100 | IC50 [3]: 10 to 100 nM; IC50 [4]: 10 to 100 nM; IC50 [5]: 100 to 1000 nM |
| Nc1nonc1-c1nc2ccccc2n1COc1ccccc1 [Example 7, 4-(1-Phenoxymethyl-1H-benzimidazol-2-yl)-furazan-3-ylamine] | 100 to 1000 | 0 | 0 | 2 (score 2 relating to strong activity comprising more than 70% of the cells) | 0 | 0 | 2 (score 2 relating to strong activity comprising more than 70% of the cells) | 0 | 0 | 2 (score 2 relating to strong activity comprising more than 70% of the cells) | 0 | 0 | 2 (score 2 relating to strong activity comprising more than 70% of the cells) | 0 | 0 | 0 | 0 | 0 | 0 | – | IC50 ([1]; Homo sapiens): 100 to 1000 nM; IC50 ([3]; Homo sapiens, HT-1080): 100 to 1000 nM; IC50 ([4]; Homo sapiens): 100 to 1000 nM; IC50 ([5]; Homo sapiens): 100 to 1000 nM |
| COc1ccc(C(=O)Cn2c(-c3nonc3NCCC#N)nc3ccccc32)cc1 [Example 48] | 10 to 100 | 0 | 0 | 2 (score 2 relating to strong activity comprising more than 70% of the cells) | 0 | 2 (score 2 relating to strong activity comprising more than 70% of the cells) | 2 (score 2 relating to strong activity comprising more than 70% of the cells) | 0 | 2 (score 2 relating to strong activity comprising more than 70% of the cells) | 2 (score 2 relating to strong activity comprising more than 70% of the cells) | 0 | 2 (score 2 relating to strong activity comprising more than 70% of the cells) | 2 (score 2 relating to strong activity comprising more than 70% of the cells) | 0 | 2 (score 2 relating to strong activity comprising more than 70% of the cells) | 2 (score 2 relating to strong activity comprising more than 70% of the cells) | 0 | 0 | 0 | < 10 | IC50 [3]: 10 to 100 nM; IC50 [4]: 10 to 100 nM; IC50 [5]: 10 to 100 nM |
| Nc1nonc1-c1nc2ccccc2n1CC(=NO)c1cccc(Cl)c1 (mixture of isomers) [Example 36] | 10 to 100 | 0 | 0 | 0 | 0 | 0 | 0 | 0 | 0 | 0 | – | – | – | 0 | 0 | 0 | 0 | 0 | 0 | 10 to 100 | IC50 [3]: 100 to 1000 nM; IC50 [4]: 10 to 100 nM; IC50 [5]: 100 to 1000 nM |
| Nc1nonc1-c1nc2ccccc2n1CC(=O)c1cccc2ccccc12 [Example 41] | 100 to 1000 | – | – | – | 0 | 0 | 2 (score 2 relating to strong activity comprising more than 70% of the cells) | 0 | 0 | 2 (score 2 relating to strong activity comprising more than 70% of the cells) | 0 | 0 | 2 (score 2 relating to strong activity comprising more than 70% of the cells) | 0 | 0 | 0 | 0 | 0 | 1 (1 relating to weak activity comprising less than 70% of the cells) | 100 to 1000 | IC50 [3]: 100 to 1000 nM; IC50 [4]: 100 to 1000 nM; IC50 [5]: 100 to 1000 nM |
